Key:
platelet FPR = molecular target: T1, platelet FPR (Homo sapiens, UniProt P21462); experiment: Inhibition of platelet chemotaxis to fMLF in transwell migration assay; assay type: cell-based; settings: 1 U and 10 U; non-activated and thrombin-activated platelets; P<0.001
T1 construct: endogenous in cells
T1 sequence (P21462 1-350): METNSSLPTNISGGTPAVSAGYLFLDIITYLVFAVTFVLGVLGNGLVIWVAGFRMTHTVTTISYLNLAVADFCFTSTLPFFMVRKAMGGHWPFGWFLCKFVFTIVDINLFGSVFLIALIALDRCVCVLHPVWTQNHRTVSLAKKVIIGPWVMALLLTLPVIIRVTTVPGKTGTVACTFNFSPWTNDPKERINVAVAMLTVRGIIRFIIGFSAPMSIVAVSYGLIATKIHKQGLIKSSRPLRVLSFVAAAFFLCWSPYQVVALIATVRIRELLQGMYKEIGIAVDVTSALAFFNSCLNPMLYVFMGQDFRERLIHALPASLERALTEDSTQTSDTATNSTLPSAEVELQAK
Method: In order to further confirm the specificity of the chemotactic response to N-formyl peptide binding of the FPR, platelet FPR was inhibited by several methods to establish its functional requirement for platelet chemotaxis. Platelets were pretreated with an FPR-specific antibody (α-FPR) capable of blocking the binding of N-formyl peptides to the FPR receptor, prior to the transwell migration assay. […] Additionally, platelets were treated with pertussis toxin, a specific inhibitor of the a-subunit of members of the Gi/o class of G-proteins required for FPR activation.
Platelet migration was assessed using a 96-well ChemoTx® microplate (Neuro Probe, Gaithersburg Md.). For all chemotaxis experiments, different concentrations of stimulants were placed in the bottom wells of the microplate and the filter was positioned (2 μm pore size). The cell suspension was seeded onto the top of the filter (30 μl) and the microplates were incubated for 2 hrs at 37° C. For all chemokinesis experiments, different concentrations of stimulants were placed in the bottom wells of the microplate and the filter was positioned. […] The filter was then carefully removed and the migrated cells were counted by light microscopy. Results are expressed as the mean value (±SD) of total migrated cells, in triplicate samples, and are taken from five experiments independent.

human platelets = experiment: Platelet chemotaxis toward ischemic/reperfused human aortic endothelial cells; assay type: cell-based; settings: thrombin-activated platelets
Method: Primary human aortic endothelial cells were plated in 0.2% gelatin (Sigma) coated 96-well ChemoTx microplates and allowed to recover for 48 hours. Before the plate was placed in the modular incubator chamber (Billups-Rothenberg Inc.; Del Mar, Calif.) the media was replaced with serum-free media containing 10 mM Hepes. The plate was placed on ice and put into the air tight modular incubator chamber and flushed with a gas mixture of 5% CO2 and 95% N2 for 90 min to induce ischemia. The cell culture was then returned to a normoxic environment of atmospheric air/5% CO2 to simulate reperfusion, and allowed to recover for 4 hours in a cell culture incubator. Chemotaxis experiments were then performed.
In particular, studies were performed to determine whether endogenous danger signals released by tissues undergoing ischemia/reperfusion cell injury induced platelet chemotaxis. Primary human aortic cells, plated in a 96-well ChemoTx plate NeuroProbeInc. Gaithersburg, Md. were placed on ice and put into an air tight modular incubator chamber that was flushed with a gas mixture of 5% CO2 and 95% N2 for 90 min to induce ischemia. The cell culture was then returned to a normoxic environment of atmospheric air/5% CO2 and allowed to recover for 4 hours in a cell culture incubator at 37° C.

For pertussis toxin, the “effect of platelet treatment with pertussis toxin on migration to fMLF” value (platelet FPR) was “significantly decreased migration” and the “effect of platelet treatment on chemotaxis toward ischemic aortic endothelial cells” value (human platelets) was “decreased chemotaxis”.

— patent US20060171944A1, “N-formyl peptide receptor mediation of platelet chemotaxis toward injured cells and activation of immune response” (priority 2002, published 2006)
